According to article PMC9381536, “Non-apoptotic cell death induction via sapogenin based supramolecular particles” (Scientific Reports, 2022):
Entries after “also recorded” stand apart in the source; their conditions may differ.

Tests used:
A549 = test: Cytotoxicity analysis (WST-1); assay type: cell-based; settings: Homo sapiens, A549, 48 h
Experimental: (§1) HCC1937 (Human breast cancer line), HeLa (Human […]), A549 (Human lung adenocarcinoma), MRC-5 (Human lung fibroblasts), MCF7 (Human breast cancer cells), A549 (human lung carcinoma) were obtained from American Type Culture Collection and maintained as exponentially growing monolayers by culturing according to the supplier’s instructions. MCF7, HeLa, MRC-5, and A549 cell lines were cultured and routinely passaged in DMEM media containing 10% FBS, while HCC1937 cell lines were propagated in RPMI 1640 containing 10% FBS.
(§2) Following the treatment with compounds or vehicle for 48 h, the 10% WST-1 (Roche, Switzerland) in medium was replaced in each 96 well. After 4 h incubation with WST-1 reagent at 37 °C and 5% CO2, the absorbance was measured using a microplate reader at 440 nm (Varioscan, Thermo Fisher Scientific, US). Graph Pad Prism 5 (San Diego, CA, US.) was used to calculate the IC50, which represents the concentration of compounds that is required for 50% inhibition in comparison to the vehicle-treated controls. The experiments were repeated three times independently.

HCC1937 [1] = test: Cytotoxicity analysis (WST-1); assay type: cell-based; settings: Homo sapiens, HCC1937, 48 h
Experimental: as §1, §2

HeLa = test: Cytotoxicity analysis (WST-1); assay type: cell-based; settings: Homo sapiens, 48 h
Experimental: as §1, §2

MCF7 = test: Cytotoxicity analysis (WST-1); assay type: cell-based; settings: Homo sapiens, MCF7, 48 h
Experimental: as §1, §2

MRC-5 = test: Cytotoxicity analysis (WST-1); assay type: cell-based; settings: Homo sapiens, MRC5, MRC-5 normal cell line, 48 h
Experimental: as §1, §2

[2] = Nile red staining (particle formation); assay type: physicochemical; settings: even at 30 µM
Experimental: AG-08 and AG were dissolved in DMSO as a 1000-fold concentrated stock added into the filtered PBS, which contain 2.5 µM Nile red. After 3 h incubation at room temperature, the fluorescence intensity was measured with a microplate reader (550 nm for excitation and 635 nm for the emission wavelength) (Varioscan, Thermo Fisher Scientific, US).

[3] = tested on: HeLa, HCC1937, MCF7, A549 and MRC-5; test: cells; assay type: cell-based, Human; settings: for IC50: Homo sapiens, range over HeLa, HCC1937, MCF7, A549, MRC-5, read-out: IC50 across the five cell lines
Source text: We next aimed to further characterize the relation between the chemical structure of AG-08 and its capacity of supramolecular assembly formation together with its biological activities by preparing further derivatives. In this regard, 18 analogs (Fig. 4) were synthesized from 20(27)-octanor-cycloastragenol (SCG), cycloastragenol (CG), and astragenol (AG) by the methods shown in the method section. The details and characterization of which are shown in Supplementary Information. The cytotoxic activities of the semi-synthetic analogs were evaluated against four human cancer cell lines, namely HeLa, HCC1937, MCF7, and A549 as well as against MRC-5 as a normal cell line.
as §1, §2

HCC1937 cells = test: Cytotoxicity of 220 nm filtrates; assay type: cell-based; settings: inferred from filtration and Tween-20 tests
Experimental: Figure 1 AG-08 mediated cytotoxicity relies on the supramolecular structures. (A) Structure of AG-08. (B) The scanning transmission electron micrograph of 16 µM AG-08 in PBS. Figure is a representative image of stained sample with uranyl acetate (5683 × magnification; scale bar 600 nm). (C) After 3 h incubation of Nile red solution with AG-08 or AG, fluorescence intensity of Nile red was measured. (D) AG-08, Staurosporine (Sta) or vehicle samples prepared in the cell condition medium was filtrated by 220 nm filter and HCC1937 cells were exposed to the filtrates. After 24 h, the viability of cells was measured and represented as a percentage of that of the vehicle control. The error bars represent mean value ± s.d. (n = 3). *p < 0.05, **p < 0.005, ***p < 0.001. (E) Tween 20 (1:40,000) was added to the fresh medium before addition of 8 μM AG-08 or vehicle. Then cell medium was replaced with this fresh medium. Cell viability was detected after 24 h incubation. […] TEXT PRINTED IN THE PICTURE: (F) no label printed: Diameter: 153.2±4.6; polydispersity index: 0.218
To verify that the activity of AG-08 arises from its supramolecular structures, freshly prepared AG-08 solutions were filtered using 220 nm-filters to remove AG-08 supramolecular particles from medium, and the filtrates were analyzed for their cytotoxicity. […] Next, Tween-20 was utilized as a non-ionic detergent to block particle formation, and AG-08-mediated cell death was inhibited as expected (Fig. 1E). […]

HCC1937 [4] = test: LDH (lactate dehydrogenase) releasing assay; assay type: cell-based, Human; settings: LDH release and immunoblotting
Experimental: Figure 5 The cytotoxic activity of analogs depends on particle formation like AG-08. […] The level of released LDH was calculated as fold change relative to vehicle. […] After 24 h, cell viability was measured. […] Cell viability after 24 h was measured. The reported values correspond to mean values ± standard deviation (± s.d) of three experiments. ***p < 0.001, ****p < 0.0001.
LDH-Cytotoxicity Colorimetric Assay Kit II (Biovision) was used to detect LDH releasing. Briefly, HCC1937 were seeded on 96 well plate. After treatment with compounds, cells were centrifuged at 600×g for 10 min. 10 µl supernatant were transferred into clean 96 well plate and added into 100 µl LDH Reaction Mix. Following 30 min incubation at room temperature, 10 µl stop solution were added, and absorbance was measured at 450 nm (Varioscan, Thermo Fisher Scientific, US).

[5] = fibrils inducing apoptosis; cited from earlier work

SMILES	IC50 (A549)	IC50 (HCC1937 [1])	IC50 (HeLa)	IC50 (MCF7)	IC50 (MRC-5)	Nile red fluorescence intensity (particle formation) [2]	cytotoxic activity (structure-activity statement) [3]	IC50 [3]	formation of supramolecular assemblies/particles (HCC1937 cells)	mode of cell death (HCC1937 [4])	concentration at which fibrils form [5]
CC(C)(O)C1CCC(C)(C2C(O)CC3(C)C4CC(O)C5C(C)(CCC(O)C5(C)C)C4=CCC23C)O1 (centres unmarked) [AG, astragenol, reference compound]	> 30 µM	> 30 µM	> 30 µM	> 30 µM	> 30 µM	no fluorescence intensity					
Cc1ccc(S(=O)(=O)OC2CCC3(C)C4=CCC5(C)C(C6(C)CCC(C(C)(C)O)O6)C(O)CC5(C)C4CC(=O)C3C2(C)C)cc1 (centres unmarked) [AG-05]	2.02 µM	4.28 µM	5.9 µM	2.55 µM	1.55 µM		higher activity	1.55 to 5.9 µM	form supramolecular assemblies; also recorded: formed supramolecular particles	induced necrotic cell death	
CC(=O)Nc1ccc(S(=O)(=O)OC2CCC3(C)C4=CCC5(C)C(C6(C)CCC(C(C)(C)O)O6)C(O)CC5(C)C4C=CC3C2(C)C)cc1 (centres unmarked) [AG-06]	5.7 µM	10 µM	10.8 µM	9.34 µM	19.1 µM		decrease in activity	5.7 to 19.1 µM	formed supramolecular particles	induced necrotic cell death	
Cc1ccc(S(=O)(=O)OC2CCC34CC35CCC3(C)C(C6(C)CCC(C(C)(C)O)O6)C(O)CC3(C)C5C=CC4C2(C)C)cc1 (centres unmarked) [CG-03]	3.65 µM	6.13 µM	12.9 µM	5.5 µM	5.29 µM			3.65 to 12.9 µM	form supramolecular assemblies; also recorded: formed supramolecular particles	induced necrotic cell death	
Cc1ccc(S(=O)(=O)OC2CCC34CC35CCC3(C)C(C6(C)CCC(C(C)(C)O)O6)C(O)CC3(C)C5CC(=O)C4C2(C)C)cc1 (centres unmarked) [CG-05]	1.85 µM	2.66 µM	6.1 µM	3.85 µM	2.58 µM		higher activity	1.85 to 6.1 µM	form supramolecular assemblies; also recorded: formed supramolecular particles	induced necrotic cell death	
CC(=O)Nc1ccc(S(=O)(=O)OC2CCC34CC35CCC3(C)C(C6(C)CCC(C(C)(C)O)O6)C(O)CC3(C)C5C=CC4C2(C)C)cc1 (centres unmarked) [CG-06]	> 50 µM	38.1 µM	> 50 µM	41.3 µM	> 50 µM		complete activity loss		form supramolecular assemblies	induced necrotic cell death	
C=C(C)[C@@H]1CC[C@]2(C(=O)O)CC[C@]3(C)[C@H](CC[C@@H]4[C@@]5(C)CC[C@H](O)C(C)(C)[C@@H]5CC[C@]43C)[C@@H]12 [betulinic acid]											> 50000 µM
